Laboratory results as given in ChEMBL document CHEMBL1201862, “PubChem BioAssay data set” (2004).
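48-hour exposure; five concentrations; linearly interpolated endpoints. At the GI50, growth is halved.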 Calls of active or inactive are those of the source. Cut-off read from the data, not from the text of the source: active = GI50 up to about 1.1 µM and inactive = higher.

How the values were obtained:
Test in all cases: growth of human tumour cells (NCI), 48 h
KM-20L2 = test system: KM-20L2
RXF 631 = test system: RXF 631
XF498 = test system: XF498
SNB-78 = test system: SNB-78
DMS-114 = test system: DMS-114
DLD-1 = test system: DLD-1
M19-MEL = test system: M19-MEL
LXFL 529 = test system: LXFL 529
DMS-273 = test system: DMS-273

Measured: GI50

COc1ccc(-c2cc(O)c3cc(Cl)ccc3n2)cc1
inactive: KM-20L2 > 100 µM | RXF 631 > 100 µM | XF498 > 100 µM | SNB-78 > 100 µM | DMS-114 > 100 µM | DLD-1 > 100 µM | M19-MEL > 100 µM | LXFL 529 > 100 µM

COc1ccc2[nH]c3c(c2c1)[C@H]1CCC(C(C)(C)C)C[C@H]1[C@H]1C(=O)N(c2ccccc2)C(=O)[C@@H]31 (stereo partly drawn)
inactive: KM-20L2 > 51.4 µM | RXF 631 6.15 µM | XF498 9.91 µM | DMS-114 21.9 µM | DLD-1 13.5 µM | DMS-273 32.7 µM | M19-MEL 26.1 µM | LXFL 529 69.3 µM

COC(=O)/C(C=O)=C/Sc1ccccc1
inactive: KM-20L2 29.7 µM | RXF 631 14.9 µM | XF498 40 µM | SNB-78 26.5 µM | DMS-114 16.7 µM | DLD-1 21.4 µM | DMS-273 18.4 µM | M19-MEL 20 µM | LXFL 529 18.3 µM

CC/C(SC)=[N+](\C)[O-]
inactive: KM-20L2 > 100 µM | RXF 631 > 100 µM | XF498 > 100 µM | SNB-78 > 100 µM | DMS-114 > 39 µM | DLD-1 > 45.9 µM | M19-MEL > 100 µM | LXFL 529 > 100 µM

CC1=NOC(=O)/C1=C/c1ccc([N+](=O)[O-])cc1
inactive: KM-20L2 > 100 µM | RXF 631 > 100 µM | XF498 > 100 µM | SNB-78 > 100 µM | DMS-114 > 100 µM | DLD-1 > 100 µM | DMS-273 > 100 µM

O=c1cc(-c2ccc(Cl)cc2)oc2cc(OCCCOc3ccc4c(=O)cc(-c5ccc(Cl)cc5)oc4c3)ccc12
inactive: KM-20L2 > 100 µM | RXF 631 > 100 µM | XF498 > 100 µM | SNB-78 > 100 µM | DMS-114 > 100 µM | DLD-1 > 100 µM | DMS-273 > 100 µM | M19-MEL > 100 µM | LXFL 529 > 100 µM

CC1=CC2CC(C)C1(C)CCc1ccoc12 (stereo not drawn)
inactive: KM-20L2 > 100 µM | RXF 631 > 100 µM | XF498 > 100 µM | SNB-78 > 100 µM | DMS-114 > 100 µM | DLD-1 > 100 µM | DMS-273 > 100 µM | M19-MEL > 100 µM | LXFL 529 > 100 µM

CCC12CCC(O)C1N(C)CCC2Sc1ccccc1 (stereo not drawn)
inactive: KM-20L2 41.3 µM | RXF 631 > 100 µM | XF498 26.4 µM | SNB-78 > 100 µM | DMS-114 82.4 µM | DMS-273 > 100 µM | M19-MEL > 100 µM

CNc1ccc2ncccc2c1[N+](=O)[O-]
inactive: KM-20L2 > 100 µM | RXF 631 > 100 µM | XF498 > 100 µM | SNB-78 > 100 µM | DMS-114 > 100 µM | DLD-1 > 100 µM | DMS-273 > 100 µM | M19-MEL > 100 µM | LXFL 529 > 100 µM

O=C1C2C3C=CC(C2C(=O)N1CO)C1C2C(=O)N(CO)C(=O)C2C31 (stereo not drawn)
inactive: KM-20L2 > 31.6 µM | RXF 631 > 54.6 µM | XF498 > 100 µM | SNB-78 > 100 µM | DMS-114 42 µM | DLD-1 > 46.9 µM | DMS-273 > 44.5 µM | M19-MEL > 68.5 µM | LXFL 529 > 81.1 µM
